Results published in patent publication EP4813403A1, “USE OF GLP-1R/GIPR DOUBLE-TARGET AGONIST IN PREPARING ANIMAL DRUG” (Hangzhou Zhongmeihuadong Pharmaceutical Co., Ltd., priority 2023, dated 2025).

Legend:
mouse GLP-1R = molecular target: T1, mouse GLP-1R (Mus musculus, UniProt O35659); experiment: Agonistic activity on GLP-1R of different species (LANCE Ultra cAMP assay): mouse; format: cell-based; details: ratio of EC50 value of other species to human EC50 value
T1 construct: expressed in transfected cells
T1 sequence (O35659 22-463): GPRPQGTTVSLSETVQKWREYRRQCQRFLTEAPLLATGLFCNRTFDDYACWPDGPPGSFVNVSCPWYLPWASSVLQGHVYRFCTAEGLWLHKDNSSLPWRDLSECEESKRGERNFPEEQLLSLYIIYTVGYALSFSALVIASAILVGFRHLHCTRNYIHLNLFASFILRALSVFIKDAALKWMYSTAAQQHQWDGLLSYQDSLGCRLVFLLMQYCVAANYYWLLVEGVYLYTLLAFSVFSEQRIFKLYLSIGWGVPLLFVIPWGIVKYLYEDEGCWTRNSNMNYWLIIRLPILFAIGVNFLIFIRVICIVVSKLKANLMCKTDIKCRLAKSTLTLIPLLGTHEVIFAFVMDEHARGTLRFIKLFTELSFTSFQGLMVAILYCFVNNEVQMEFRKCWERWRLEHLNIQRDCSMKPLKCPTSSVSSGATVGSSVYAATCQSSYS

dog GLP-1R = molecular target: T2, dog GLP-1R (Canis lupus familiaris, UniProt A0A8I3NUR9); experiment: Agonistic activity on GLP-1R of different species (LANCE Ultra cAMP assay): dog; format: cell-based; details: ratio of EC50 value of other species to human EC50 value
T2 construct: expressed in transfected cells
T2 sequence (A0A8I3NUR9 1-464): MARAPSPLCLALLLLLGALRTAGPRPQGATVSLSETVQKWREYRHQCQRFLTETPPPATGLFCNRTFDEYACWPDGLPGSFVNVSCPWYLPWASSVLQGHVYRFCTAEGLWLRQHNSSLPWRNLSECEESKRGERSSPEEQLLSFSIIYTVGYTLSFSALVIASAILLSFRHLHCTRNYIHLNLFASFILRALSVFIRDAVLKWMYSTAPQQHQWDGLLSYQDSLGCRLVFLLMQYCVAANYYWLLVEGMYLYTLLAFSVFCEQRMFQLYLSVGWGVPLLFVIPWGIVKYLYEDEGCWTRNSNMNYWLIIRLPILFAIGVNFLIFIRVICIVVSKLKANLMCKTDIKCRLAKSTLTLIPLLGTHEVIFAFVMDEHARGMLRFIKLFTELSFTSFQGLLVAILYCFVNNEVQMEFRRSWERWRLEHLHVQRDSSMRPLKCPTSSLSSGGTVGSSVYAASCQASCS
Protocol: The in vitro agonistic activity of the compound of the present invention on GLP-1R was measured in cells stably expressing human, dog, mouse, rat, rabbit, and monkey GLP-1R (human GLP-1R-HEK, dog GLP-1R-HEK, mouse GLP-1R-HEK, rat GLP-1R- in HEK, rabbit GLP-1R-CHO, monkey GLP-1R-HEK cells). Human GLP-1R-HEK, dog GLP-1R-HEK, mouse GLP-1R-HEK, rat GLP-1R-HEK, rabbit GLP-1R-CHO, and monkey GLP-1R-HEK cells were resuspended in 1×Casein Stimulation Buffer (HBSS, 5 mM HEPES, 0.5 mM IBMX, 0.1% casein, pH7.4), and seeded into a 384-well cell culture plate at 9 µL/well (cell numbers being 1000, 1000, 1000, 1500, 1000, 1000 cells/well, respectively). 1 µL of 1×Casein Stimulation Buffer containing 10× compound was added to the above-mentioned 384-well cell culture plate. The plate was incubated at 37 °C for 30 minutes. After the incubation was completed, 5 µL of Eu-cAMP working solution and 5 µL of Ulight^TM-cAMP working solution were added sequentially, centrifuged and then incubated at room temperature for 1 hour. The readings at 665 nm and 620 nm were determined with a 330 nm excitation light on a microplate reader. The 665 nm/620 nm reading ratio was calculated. […] GraphPad was used to perform nonlinear regression according to the response percentage and the concentration of the compound added to obtain the EC50 value for each compound.

DIO mice = experiment: Weight loss effect in DIO mice obesity model; format: in vivo; set-up: Cumulative food intake / Fasting blood glucose / Insulin / Serum TC / ALT: unit not given here; details: for Insulin resistance index / Serum TC / Fasting blood glucose / Insulin / Body weight / Cumulative food intake / Liver Weight / ALT: Mean±SEM, 10 mice; for Insulin: D30 serum; for Body weight / Cumulative food intake / Liver Weight / Total abdominal fat: s.c. once every 3 days for 4 weeks; for Total abdominal fat: sum of perirenal and paratesticular fat; for ALT: serum
Protocol: In this study, 26-week-old male DIO mice were used. DIO mice were housed in appropriate cages. DIO mice were housed in an environment-monitored and well-ventilated SPF-grade animal room, with the temperature maintained between 20 and 26°C and relative humidity between 40% and 70%. […] The mice received food and water ad libitum. […] The mice were subcutaneously administrated once every 3 days for 4 consecutive weeks. […] Food intake was measured once daily after administration. RBG was measured before grouping and at 48 h after each administration. After fasted for 5 h on D30 (no water deprivation was required), FBG and glycated hemoglobin A1c (HbA1c) were detected, and blood was collected intravenously to separate the serum. A mouse insulin ELISA kit was used to detect the insulin content in the serum, and a biochemistry analyser was used to detect total cholesterol (TC), TG, low-density lipoprotein cholesterol (LDL), high-density lipoprotein cholesterol (HDL), free fatty acid (FFA), ALT, and aspartate aminotransferase (AST) content. The liver was collected, the perirenal and paratesticular fat tissues were separated and weighed, the organ-body ratio was calculated. The liver was stained with HE and Oil Red O for pathological scoring. The data results were statistically analyzed using one-way analysis of variance (ANOVA). A Levene's test was performed to test for variance homogeneity. If the result was homogeneous (P>0.05), a one-way analysis of variance (ANOVA) would be performed. […] In the case of heterogeneity of variance (P ≤0.05 ), a Dunnett's T3 test would be performed. Results were expressed as mean and standard deviation (Mean ± SEM). The test level was 0.05. Both statistical significance and biological significance were considered when analyzing the results.

[1] = 0.3 nmol/kg s.c. once every 3 days
[2] = 1 nmol/kg s.c. once every 3 days
[3] = 3 nmol/kg s.c. once every 3 days
[4] = 30 nmol/kg s.c. once every 3 days

CC[C@H](C)[C@H](NC(=O)C(C)(C)NC(=O)[C@H](Cc1ccc(O)cc1)NC(=O)[C@H](CC(=O)O)NC(=O)[C@H](CO)NC(=O)[C@@H](NC(=O)C(C)(Cc1ccccc1)NC(=O)[C@@H](NC(=O)CNC(=O)[C@H](CCC(=O)O)NC(=O)C(C)(C)NC(=O)[C@@H](N)Cc1ccc(O)cc1)[C@@H](C)O)[C@@H](C)O)C(=O)NC(C)(C)C(=O)N[C@@H](CC(C)C)C(=O)N[C@@H](CC(=O)O)C(=O)N[C@@H](CCCCN)C(=O)N[C@@H](CCC(N)=O)C(=O)N[C@@H](C)C(=O)N[C@@H](CCC(N)=O)C(=O)N[C@@H](C)C(=O)N[C@@H](CCC(=O)O)C(=O)N[C@@H](Cc1ccccc1)C(=O)N[C@H](C(=O)N[C@@H](CCCCNC(=O)COCCOCCNC(=O)COCCOCCNC(=O)COCCOCCNC(=O)CC[C@H](NC(=O)CCCCCCCCCCCCCCCCCCCCC(=O)O)C(=O)O)C(=O)N[C@@H](Cc1c[nH]c2ccccc12)C(=O)N[C@@H](CC(C)C)C(=O)N[C@@H](CC(C)C)C(=O)N[C@@H](CCCCN)C(=O)NCC(=O)NCC(=O)N1CCC[C@H]1C(=O)N[C@@H](CO)C(=O)N[C@@H](CO)C(=O)NCC(=O)N[C@@H](C)C(=O)N1CCC[C@H]1C(=O)N1CCC[C@H]1C(=O)N1CCC[C@H]1C(=O)N[C@@H](CO)C(=O)N[C@@H](CCCCN)C(N)=O)C(C)C (some centres unmarked) [Compound P016]
GLP-1R EC50 ratio (mouse GLP-1R): 1.09 | GLP-1R EC50 ratio (dog GLP-1R): 4.52 | Insulin resistance index (DIO mice; [1]): 43.94±6.288 | Serum TC (DIO mice; [1]): 4.07±0.26 | Insulin resistance index (DIO mice; [2]): 21.532±3.705 | Serum TC (DIO mice; [2]): 3.26±0.20 | Insulin resistance index (DIO mice; [3]): 11.991±1.907 | Serum TC (DIO mice; [3]): 2.61±0.13 | Insulin resistance index (DIO mice; [4]): 5.179±1.178 | Serum TC (DIO mice; [4]): 2.50±0.18 | Fasting blood glucose (DIO mice; D30, 0.3 nmol/kg s.c. once every 3 days): 13.78±0.39 | Fasting blood glucose (DIO mice; D30, 1 nmol/kg s.c. once every 3 days): 11.23±0.40 | Fasting blood glucose (DIO mice; D30, 3 nmol/kg s.c. once every 3 days): 10.36±0.67 | Fasting blood glucose (DIO mice; D30, 30 nmol/kg s.c. once every 3 days): 8.39±0.30 | Insulin (DIO mice; [1]): 3.285±0.481 | Insulin (DIO mice; [2]): 1.911±0.29 | Insulin (DIO mice; [3]): 1.196±0.185 | Insulin (DIO mice; [4]): 0.624±0.130 | Body weight (DIO mice; 0.3 nmol/kg): 45.4 ± 1.3 g | Cumulative food intake (DIO mice; 0.3 nmol/kg): 75.75±2.81 | Liver Weight (DIO mice; 0.3 nmol/kg): 1.552 ± 0.106 g | Total abdominal fat (DIO mice; 0.3 nmol/kg): 2.631 ± 0.069 g | Body weight (DIO mice; 1 nmol/kg): 38.3 ± 1.1 g | Cumulative food intake (DIO mice; 1 nmol/kg): 61.40±1.58 | Liver Weight (DIO mice; 1 nmol/kg): 1.191 ± 0.075 g | Total abdominal fat (DIO mice; 1 nmol/kg): 1.849 ± 0.181 g | Body weight (DIO mice; 3 nmol/kg): 34.1 ± 0.7 g | Cumulative food intake (DIO mice; 3 nmol/kg): 55.47±2.72 | Liver Weight (DIO mice; 3 nmol/kg): 1.069 ± 0.029 g | Total abdominal fat (DIO mice; 3 nmol/kg): 0.972 ± 0.076 g | Body weight (DIO mice; 30 nmol/kg): 29 ± 0.7 g | Cumulative food intake (DIO mice; 30 nmol/kg): 48.38±2.31 | Liver Weight (DIO mice; 30 nmol/kg): 0.995 ± 0.029 g | Total abdominal fat (DIO mice; 30 nmol/kg): 0.461 ± 0.034 g | ALT (DIO mice; [1]): 95.60±14.09 | ALT (DIO mice; [2]): 43.90±3.86 | ALT (DIO mice; [3]): 52.80±9.62 | ALT (DIO mice; [4]): 49.60±5.67
